Test results published in publication PMC3834177 (Cancer Chemotherapy and Pharmacology, 2013).
Where two headings read alike, the source gives them in different places. Marks after values point to notes of the source that are not given here.

Columns and labels:
[1] = Safety and tolerability, midazolam study
Source text: (§1) Both inhibition and induction of midazolam clearance were investigated.

[2] = Midazolam PK when administered with midostaurin; conditions: for AUC(0-inf): AUC0–inf; for AUC(0-inf) / AUC(0-t) / Cmax: adjusted geometric mean; for AUC(0-t): AUC0–last; for Cmax: C max
Source text: as §1
Similarly, blood and urine samples were taken on days 1, 3, 6, 7, 8, and 9 to measure the levels of 4β-hydroxycholesterol in plasma and the 6β-hydroxycortisol/cortisol ratio in urine, markers of CYP3A4 activity.
The PK parameters of midazolam and its metabolites (C max, t max, AUC0–last, AUCinf, and t 1/2) were derived using a noncompartmental method with the aid of WinNonLin 5.2. […] Following log transformation, the primary PK parameters were analyzed using a linear, mixed-effects model using the term of treatment as a fixed factor (reference, test 1, test 2) and subject as a random factor. A point estimate and the corresponding 90 % CI for the difference in test 1 versus reference and the difference in test 2 versus reference were derived from the respective contrasts of the model estimates and anti-logged to obtain the GMR and respective 90 % CI.
(§2) The concentration of ketoconazole in plasma was assessed using a validated LC–MS/MS assay with an LLOQ of 50.0 ng/mL (WuXi Pharmatech Co, Ltd, China). The concentration of rifampicin in plasma was measured using a validated LC–MS/MS assay with an LLOQ of 5.0 ng/mL (SGS, Cephac Europe, SAS). Plasma concentrations of midazolam and its metabolite 1′-hydroxymidazolam, which is generated by CYP3A4 and CYP3A5 in humans, were measured using a validated LC–MS/MS assay with an LLOQ of ≈0.100 ng/mL (SGS, Cephac Europe, SAS). The plasma concentration of 4β-hydroxycholesterol was measured using a validated LC–MS/MS assay with an LLOQ of 3.0 ng/mL (SGS, Cephac Europe, SAS). The concentrations of 6β-hydroxycortisol and cortisol in urine were determined using validated LC–MS/MS assays with an LLOQ of 10.0 ng/mL for 6β-hydroxycortisol and 1.0 ng/mL for cortisol. The ratio of 6β-hydroxycortisol to cortisol was subsequently calculated (SGS, Cephac Europe, SAS). See Supplementary Table 2 for detailed bioanalytical methods for all 3 studies.

mutant FLT3 = conditions: in vitro; read-out: half-maximal inhibitory concentration (IC50), mutant FLT3; cited from earlier work
[3] = tested on: human serum protein α1-acid glycoprotein (AAG); design: method as in PMID 11230495; conditions: cited from earlier work
CYP3A4/5 = conditions: in vitro; read-out: IC50, CYP3A4/5 activity (midazolam 1′-hydroxylation); cited from earlier work
[4] = cited from earlier work
[5] = Midostaurin PK when administered with rifampicin; conditions: for decrease in exposure (AUClast) in midostaurin + rifampicin arm: compared with midostaurin alone; for AUC(0-t) / Cmax / half-life / Tmax: human, oral; for AUC(0-t) / Cmax / half-life / Tmax / AUC0–inf, adjusted geometric mean / AUC0–last, adjusted geometric mean / C max, adjusted geometric mean / t 1/2, adjusted geometric mean / t max, median: plasma, n = 20; for AUC(0-t): AUC0–last; for AUC(0-t) / Cmax: adjusted geometric mean; for Cmax: C max; for half-life: t 1/2, adjusted geometric mean; for Tmax: t max, median
Method: These endogenous molecules served as exploratory biomarkers for CYP3A4 activity in vivo [21, 22].
A point estimate and the corresponding 90 % CI for the treatment effect (test vs reference) were calculated. These were anti-logged to obtain the GMR and respective 90 % CI. […] The median difference was estimated with the Hodges–Lehmann estimator and its respective exact two-sided 90 % CI. All formal comparative statistical analyses were performed using SAS software.
as §2

[6] = Midostaurin PK when administered with ketoconazole; conditions: for Cmax / Tmax: human, oral; for Cmax: C max, adjusted geometric mean; for Tmax: t max, median; for t max, Hodges–Lehmann estimate of median difference (90 % distribution-free CI): ketoconazole + midostaurin vs placebo + midostaurin
Method: According to the US Food and Drug Administration, ketoconazole 400 mg once daily is the recommended dose to evaluate DDIs involving CYP3A4 inhibition. [drawing 1]
Adverse events (AEs) were recorded during the study and up to 1 month (28 days) after the end of study. Volunteers remained at the clinic until AEs were common toxicity criteria (CTC) grade ≤1.
A point estimate and the corresponding 90 % CI for the treatment effect were calculated for the test treatment compared with the reference. These were anti-logged to obtain the point estimate and the 90 % CI for the geometric mean ratio (GMR) on the untransformed scale. […] All ANOVAs were performed using SAS software (SAS Institute Inc., Cary, NC, USA).
as §2

[7] = midazolam study: MZ 4 mg (day 1), MZ 4 mg + Mido 100 mg (day 3), Mido 50 mg twice daily (days 4–6)
[8] = midazolam study: second MZ 4 mg alone (day 8, after Mido)
[9] = day 8 (after repeated doses of midostaurin) vs day 1
[10] = human, plasma, oral, 4 mg, plasma, Midazolam (day 1), n = 18
[11] = human, plasma, oral, 4 mg, plasma, Midazolam (day 8), n = 18
[12] = human, plasma, oral, plasma, Midazolam + midostaurin (day 3), n = 18
[13] = Placebo + midostaurin arm, rifampicin study
[14] = plasma, plasma, Ketoconazole + midostaurin arm, n = 18
[15] = plasma, plasma, Placebo + midostaurin arm, ketoconazole study, n = 18
[16] = plasma, Ketoconazole + midostaurin arm, n = 18
[17] = plasma, Placebo + midostaurin arm, ketoconazole study, n = 18

In the case of Cc1ncc2n1-c1ccc(Cl)cc1C(c1ccccc1F)=NC2 [Midazolam], the “Adverse event: Abdominal distension” value [1, 7] is reported as 0 n (%), the “Adverse event: Any preferred term” value [1, 7] is reported as 3 (15.0) n (%) and the “Adverse event: Back pain” value [1, 7] is reported as 0 n (%). For the same molecule, the “Adverse event: Chromaturia” value [1, 7] was 0 n (%), the “Adverse event: Cough” value [1, 7] was 0 n (%) and the “Adverse event: Diarrhea” value [1, 7] was 0 n (%). The “Adverse event: Discolored feces” value [1, 7] was 0 n (%), the “Adverse event: Dizziness” value [1, 7] was 0 n (%) and the “Adverse event: Dry skin” value [1, 7] was 0 n (%). The “Adverse event: Dyspepsia” value [1, 7] was 0 n (%), the “Adverse event: Feeling cold” value [1, 7] was 0 n (%) and the “Adverse event: Feeling hot” value [1, 7] was 0 n (%). The “Adverse event: Flatulence” value [1, 7] was 0 n (%), the “Adverse event: Headache” value [1, 7] was 2 (10.0) n (%) and the “Adverse event: Hot flush” value [1, 7] was 0 n (%). The “Adverse event: Nasopharyngitis” value [1, 7] was 0 n (%), the “Adverse event: Nausea” value [1, 7] was 0 n (%) and the “Adverse event: Palpitations” value [1, 7] was 0 n (%). The “Adverse event: Pharyngolaryngeal pain” value [1, 7] was 0 n (%), the “Adverse event: Restlessness” value [1, 7] was 0 n (%) and the “Adverse event: Rhinitis” value [1, 7] was 0 n (%). For the same molecule, the “Adverse event: Sleep disorder” value [1, 7] was 0 n (%), the “Adverse event: Somnolence” value [1, 7] was 1 (5.0) n (%) and the “Adverse event: Vomiting” value [1, 7] was 0 n (%). For the same molecule, the “Adverse event: Abdominal distension” value [1, 8] was 0 n (%), the “Adverse event: Any preferred term” value [1, 8] was 3 (16.7) n (%) and the “Adverse event: Back pain” value [1, 8] was 0 n (%). The “Adverse event: Chromaturia” value [1, 8] was 0 n (%), the “Adverse event: Cough” value [1, 8] was 0 n (%) and the “Adverse event: Diarrhea” value [1, 8] was 0 n (%). The “Adverse event: Discolored feces” value [1, 8] was 0 n (%), the “Adverse event: Dizziness” value [1, 8] was 0 n (%) and the “Adverse event: Dry skin” value [1, 8] was 0 n (%). The “Adverse event: Dyspepsia” value [1, 8] was 0 n (%), the “Adverse event: Feeling cold” value [1, 8] was 0 n (%) and the “Adverse event: Feeling hot” value [1, 8] was 0 n (%). For the same molecule, the “Adverse event: Flatulence” value [1, 8] was 0 n (%), the “Adverse event: Headache” value [1, 8] was 2 (11.1) n (%) and the “Adverse event: Hot flush” value [1, 8] was 0 n (%). The “Adverse event: Nasopharyngitis” value [1, 8] was 1 (5.6) n (%), the “Adverse event: Nausea” value [1, 8] was 0 n (%) and the “Adverse event: Palpitations” value [1, 8] was 0 n (%). The “Adverse event: Pharyngolaryngeal pain” value [1, 8] was 0 n (%), the “Adverse event: Restlessness” value [1, 8] was 0 n (%) and the “Adverse event: Rhinitis” value [1, 8] was 0 n (%). For the same molecule, the “Adverse event: Sleep disorder” value [1, 8] was 0 n (%), the “Adverse event: Somnolence” value [1, 8] was 0 n (%) and the “Adverse event: Vomiting” value [1, 8] was 0 n (%). For the same molecule, the “change in AUCinf” value ([2]; day 3 (co-administration of midostaurin) vs day 1) was “No change”, the “average decrease in C max” value ([2]; day 3 (co-administration of midostaurin) vs midazolam alone day 1) was 1.2 fold and the “average decrease in AUCinf” value [2, 9] was 1.1 fold. For the same molecule, the “average decrease in C max” value [2, 9] was 1.1 fold, the “t max, Hodges–Lehmann estimate of median difference (90 % distribution-free CI)” value ([2]; day 8/day 1 comparison) was 0.12 (−0.12 to 0.26)^c h and the Tmax ([2]; human, plasma, oral, 4 mg) was 0.5 h. For the same molecule, the AUC(0-inf) ([2]; human, plasma, oral, 4 mg, plasma, Midazolam (day 1), midazolam 4 mg alone, n = 18) was 49.7 ng·h/mL, the AUC(0-inf) ([2]; human, plasma, oral, 4 mg, plasma, Midazolam (day 8), midazolam 4 mg alone after repeated midostaurin, n = 18) was 47 ng·h/mL and the AUC(0-t) [2, 10] was 43.1 ng·h/mL. For the same molecule, the AUC(0-t) [2, 11] was 40.8 ng·h/mL, the Cmax [2, 10] was 13.5 ng/mL and the Cmax [2, 11] was 12.2 ng/mL. The AUC(0-inf) ([2]; human, plasma, oral, plasma, Midazolam + midostaurin (day 3), midazolam 4 mg + midostaurin 100 mg, n = 18) was 49.6 ng·h/mL, the AUC(0-t) [2, 12] was 40.2 ng·h/mL and the Cmax [2, 12] was 11 ng/mL. The “t max, median” value ([2]; plasma, Midazolam (day 8), n = 18) was 0.50 h.

In the case of CO[C@@H]1[C@H](N(C)C(=O)c2ccccc2)C[C@H]2O[C@]1(C)n1c3ccccc3c3c4c(c5c6ccccc6n2c5c31)C(=O)NC4O (mixture of isomers) [CGP52421], the IC50 (mutant FLT3) is listed as 584 nM, the “bound to AAG” value [3] is listed as 88–98% and the IC50 (CYP3A4/5) is listed as 1500 nM. For the same molecule, the “apparent elimination half-life (t 1/2)” value [4] was 384 to 744 h, the half-life [4] was > 1 month and the “major pathway for elimination” value [4] was “Fecal excretion”. The “decrease in exposure (AUClast) in midostaurin + rifampicin arm” value [5] was 2.45 fold, the AUC(0-t) [5, 13] was 14600 ng·h/mL and the AUC(0-t) ([5]; Rifampicin + midostaurin arm) was 5960 ng·h/mL. It also gave a Cmax [5, 13] of 196 ng/mL, a Cmax ([5]; Rifampicin + midostaurin arm) of 128 ng/mL and a half-life [5, 13] of 175 h. It also gave a half-life ([5]; Rifampicin + midostaurin arm) of 87.1 h, a Tmax [5, 13] of 3 h and a Tmax ([5]; Rifampicin + midostaurin arm) of 2.51 h. The “median t max prolonged in midostaurin + placebo arm compared with midostaurin + rifampicin arm” value ([5]; in vivo) was 1.2 fold, the Cmax [6, 14] was 70.9 ng/mL and the Cmax [6, 15] was 145 ng/mL. For the same molecule, the Tmax [6, 14] was 120 h, the Tmax [6, 15] was 2 h and the “t max, Hodges–Lehmann estimate of median difference (90 % distribution-free CI)” value [6] was 116.7 (93.9, 117.9) h.

In the case of CN(C(=O)c1ccccc1)[C@@H]1C[C@H]2O[C@@](C)([C@@H]1O)n1c3ccccc3c3c4c(c5c6ccccc6n2c5c31)C(=O)NC4 [CGP62221], the IC50 (mutant FLT3) is given as 26 nM, the “bound to AAG” value [3] is given as 88–98% and the IC50 (CYP3A4/5) is given as < 1000 nM. For the same molecule, the “major pathway for elimination” value [4] was “Fecal excretion”, the “decrease in exposure (AUClast) in midostaurin + rifampicin arm” value [5] was 13.0 fold and the “AUC0–inf, adjusted geometric mean” value ([5]; Placebo + midostaurin arm (midostaurin 50 mg once), rifampicin study) was 35,146.80 ng h/mL. For the same molecule, the “AUC0–last, adjusted geometric mean” value [5, 13] was 32,266.80 ng h/mL, the “C max, adjusted geometric mean” value [5, 13] was 631.46 ng/mL and the “t 1/2, adjusted geometric mean” value [5, 13] was 33.74 h. The “t max, median” value [5, 13] was 3.00 h, the “AUC0–inf, adjusted geometric mean” value ([5]; Rifampicin + midostaurin arm (midostaurin 50 mg once, rifampicin 600 mg daily)) was 2,699.43 ng h/mL and the “AUC0–last, adjusted geometric mean” value ([5]; Rifampicin + midostaurin arm) was 2,501.48 ng h/mL. For the same molecule, the “C max, adjusted geometric mean” value ([5]; Rifampicin + midostaurin arm) was 396.25 ng/mL, the “t 1/2, adjusted geometric mean” value ([5]; Rifampicin + midostaurin arm) was 7.02 h and the “t max, median” value ([5]; Rifampicin + midostaurin arm) was 1.50 h. The “elimination t 1/2 in the presence of ketoconazole” value ([6]; compared with placebo) was “prolonged”, the “t max, Hodges–Lehmann estimate of median difference (90 % distribution-free CI)” value [6] was 114.0 (92.8, 116.0) h and the “AUC0–inf, adjusted geometric mean” value ([6]; plasma, Ketoconazole + midostaurin arm (midostaurin 50 mg once, ketoconazole 400 mg daily), n = 18) was 110,234.87 ng h/mL. The “AUC0–last, adjusted geometric mean” value [6, 16] was 27,237.87 ng h/mL, the “C max, adjusted geometric mean” value [6, 16] was 329.76 ng/mL and the “t 1/2, adjusted geometric mean” value ([6]; plasma, Ketoconazole + midostaurin arm, for 4 volunteers only (flat terminal phase in others)) was 142.01^b h. For the same molecule, the “AUC0–inf, adjusted geometric mean” value ([6]; plasma, Placebo + midostaurin arm (midostaurin 50 mg once), ketoconazole study, n = 18) was 31,366.63 ng h/mL, the “AUC0–last, adjusted geometric mean” value [6, 17] was 27,414.44 ng h/mL and the “C max, adjusted geometric mean” value [6, 17] was 586.78 ng/mL. For the same molecule, the “t 1/2, adjusted geometric mean” value [6, 17] was 36.60 h and the “t max, median” value [6, 17] was 3.51 h.
